Series [1] is described as follows: Inhibition of EML4-fused ALK variant 1 (unknown origin) expressed in mouse BAF3 cells using peptide substrate measured after 1 hr by HTRF assay. The format is cell-based, Homo sapiens. A general note: Time-resolved FRET reads energy transfer from a long-lived donor to a nearby acceptor.
Another series concerns BaF3. Kind of series: Antiproliferative activity against mouse BAF3 cells expressing EML4-fused ALK variant 1 assessed as reduction in cell viability measured after 2 days by alamar blue assay. Format: functional, cell-based. The settings on record: BaF3, 48 h. A general note: Resazurin is reduced to fluorescent resorufin, in cell work by metabolically active cells.
Series [2] is described as follows: Aqueous solubility of the compound in pH 6.8 JP2 fluid measured after 20 hrs by HPLC analysis. The format is physicochemical.
The test system of series [3] is NIH3T3. As to the kind of experiment: Antitumor activity against mouse 3T3 cells expressing EML4-fused ALK variant 1 xenografted in Balb/c nude mouse assessed as tumor growth inhibition at 10 mg/kg, po administered once daily for 5 days measured post last dose relative to control. Format: functional. Also noted: Activity: scale not given: the % may be the effect or the level left.

Series [4] is described as follows: Toxicity in Balb/c nude mouse xenografted with mouse 3T3 cells expressing EML4-fused ALK variant 1 assessed as effect on body weight at 10 mg/kg, po administered once daily for 5 days. Format: organism-based. The settings on record: in vivo, 120 h.
A short description of series [5]: Permeability of the compound at pH 6.5 measured after 2 hrs by PAMPA. Format: ADME. The settings on record: read-out: permeability. On the technique in general: In PAMPA a lipid-coated filter parts donor from acceptor wells.
In series [6] the test system is NIH3T3. Kind of series: Antitumor activity against mouse 3T3 cells expressing EML4-fused ALK variant 1 xenografted in Balb/c nude mouse assessed as tumor regression at 10 mg/kg, po administered once daily for 5 days measured post last dose relative to control. The format is functional.

The values that follow come from ChEMBL document CHEMBL4400573, “Synthesis and structure-activity relationships of pyrazine-2-carboxamide derivatives as novel echinoderm microtubule-associated protein-like 4 (EML4)-anaplastic lymphoma kinase (ALK) inhibitors” (Bioorg Med Chem, 2019).

One may read the IC50 as the midpoint of a concentration-inhibition curve. A word on the solubility: it is how much of the substance goes into solution per volume.

≈ marks a conversion by molar mass, not a printed value.

For `CCc1nc(C(N)=O)c(Nc2cccc(S(C)(=O)=O)c2)nc1N[C@H]1CC[C@H](O)CC1`, the IC50 in series [1] is 0.017 µM; in the series with BaF3 it was 0.068 µM. The concentration in solution in series [2] (solubility at 20 h) was 1.1 µM (≈ 0.477 µg/mL).

Consider `CCc1nc(C(N)=O)c(Nc2ccc(N3CCC(N4CCN(C)CC4)CC3)cc2OC)nc1N[C@H]1CC[C@H](O)CC1`, for which the IC50 worked out at 0.0089 µM in series [1] and 0.085 µM in the series with BaF3. The solubility at 20 h in series [2] is at least 100 µM.

Take `CCc1nc(C(N)=O)c(Nc2ccc(N3CCC(N4CCN(C)CC4)CC3)c(OC)c2)nc1N[C@H]1CC[C@H](O)CC1`: the IC50 came to 0.00037 µM in series [1] and 0.0095 µM in the series with BaF3. Moreover, in series [2], the solubility at 20 h was at least 100 µM. Also, the values for the Activity (in the series with NIH3T3 [3]; in series [4]) were 34% and “Toxic”, respectively. The Papp at 2 h in series [5] turned out to be 1.1 ×10⁻⁶ cm/s.

For `CS(=O)(=O)c1cccc(Nc2nc(N[C@H]3CC[C@H](O)CC3)c(Br)nc2C(N)=O)c1`, in series [1], the half-maximal inhibitory concentration (IC50) came out at 0.082 µM.

Regarding `CCc1nc(C(N)=O)c(Nc2ccc(N3CCC(N4CCN(C)CC4)CC3)c(OC)c2)nc1N[C@H]1CC[C@H](OC)CC1`, the values for the IC50 (in series [1]; in the series with BaF3) were 0.001 µM and 0.0097 µM, respectively. Besides, the Activity is 62% with NIH3T3 [6] and “Toxic” in series [4]. For the same compound, the Papp at 2 h in series [5] was determined as 21 ×10⁻⁶ cm/s.

Regarding `CCc1nc(C(N)=O)c(Nc2ccc(N3CCC(N4CCN(C)CC4)CC3)c(OC)c2)nc1N(C)CC`, the IC50 in series [1] came out at 0.0066 µM; in the series on BaF3 it was 0.031 µM.

Turning to `CCc1nc(C(N)=O)c(Nc2ccc(N3CCC(N4CCN(C)CC4)CC3)c(OC)c2)nc1NC(C)C`, the IC50 in series [1] was determined as 0.0008 µM; with BaF3, 0.012 µM.

Turning to `CCNc1nc(Nc2ccc(N3CCC(N4CCN(C)CC4)CC3)c(OC)c2)c(C(N)=O)nc1CC`, the figures for the IC50 (in series [1]; in the series on BaF3) were 0.0025 µM and 0.016 µM, respectively.

On to `CS(=O)(=O)c1cccc(Nc2nc(N[C@H]3CC[C@H](O)CC3)c(C3CC3)nc2C(N)=O)c1`, for which the IC50 in series [1] is 0.037 µM.

In series [1], `CCCc1nc(C(N)=O)c(Nc2cccc(S(C)(=O)=O)c2)nc1N[C@H]1CC[C@H](O)CC1` displayed an IC50 of 0.023 µM.

Consider `Cc1nc(C(N)=O)c(Nc2cccc(S(C)(=O)=O)c2)nc1N[C@H]1CC[C@H](O)CC1`, for which the IC50 in series [1] is 0.051 µM.

Take `CS(=O)(=O)c1cccc(Nc2nc(N[C@H]3CC[C@H](O)CC3)cnc2C(N)=O)c1`: in series [1], the midpoint of inhibition, the IC50, lay at 0.27 µM.

Consider `CS(=O)(=O)c1cccc(Nc2nc(N[C@H]3CC[C@H](O)CC3)c(Cl)nc2C(N)=O)c1`, for which the IC50 in series [1] was 0.082 µM.

With `CCc1nc(C(N)=O)c(Nc2ccc(N3CCC(N4CCN(C)CC4)CC3)c(OC)c2)nc1N[C@@H]1CCCC[C@H]1O` (racemic), the figures for the IC50 (in series [1]; in the series on BaF3) were 0.013 µM and 0.048 µM, respectively.

`COc1cc(N2CCC(N3CCN(C)CC3)CC2)ccc1Nc1ncnc(Nc2ccccc2S(=O)(=O)C(C)C)n1` [ASP-3026]: the midpoint of inhibition in series [1], the IC50, lay at 0.017 µM. In addition, the inhibition in vivo at 10 mg/kg in the series on NIH3T3 [3] (Mus musculus, NIH3T3, po, 120 h, read-out: TGI) is 81%. Further, in series [4], the Activity result is listed as “Non-Toxic”.
